Each molecule was assayed against T1, hP2Y14R (Homo sapiens, UniProt Q15391) (assay: Inhibition of fluorescent antagonist binding in whole hP2Y14R-expressing CHO cells (flow cytometry)). Settings: Example 5 table; whole cell fluorescent binding assay; read-out: IC50.
T1 construct: expressed in transfected cells; host or cells: CHO cells
T1 sequence (Q15391 1-338): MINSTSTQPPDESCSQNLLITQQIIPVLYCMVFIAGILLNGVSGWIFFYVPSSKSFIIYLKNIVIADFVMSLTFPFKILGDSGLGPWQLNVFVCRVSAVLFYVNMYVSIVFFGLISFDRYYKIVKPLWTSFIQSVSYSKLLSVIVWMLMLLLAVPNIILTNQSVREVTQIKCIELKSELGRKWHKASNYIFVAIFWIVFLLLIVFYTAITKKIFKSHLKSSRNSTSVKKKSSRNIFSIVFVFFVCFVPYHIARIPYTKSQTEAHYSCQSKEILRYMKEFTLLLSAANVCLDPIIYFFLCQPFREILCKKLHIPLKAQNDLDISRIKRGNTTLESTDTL

Molecule | IC50 [µM]
O=C(O)c1cc(-c2ccc(C3CCCNCC3)cc2)c2ccc(-c3ccc(C(F)(F)F)cc3)cc2c1 (centres unmarked) [Compound 426, 4-(4-(Azepan-4-yl)phenyl)-7-(4-(trifluoromethyl)phenyl)-2-naphthoic acid] | 0.00958 ± 0.00514
O=C(O)c1cc(-c2ccc(C3(O)CC4(CNC4)C3)cc2)c2ccc(-c3ccc(C(F)(F)F)cc3)cc2c1 [Compound 408, 4-(4-(6-Hydroxy-2-azaspiro[3.3]heptan-6-yl)phenyl)-7-(4-(trifluoromethyl)phenyl)-2-naphthoic acid] | 0.0208 ± 0.0056
O=C(O)c1cc(-c2ccc([C@H]3[C@@H]4CNC[C@H]3C4)cc2)c2ccc(-c3ccc(C(F)(F)F)cc3)cc2c1 [Compound 424, 4-(4-((1R,5S,6r)-3-Azabicyclo[3.1.1]heptan-6-yl)phenyl)-7-(4-(trifluoromethyl)phenyl)-2-naphthoic acid] | 0.524 ± 0.104
O=C(O)c1cc(-c2ccc(C3=CC4(CNC4)C3)cc2)c2ccc(-c3ccc(C(F)(F)F)cc3)cc2c1 [Compound 407, 4-(4-(2-Azaspiro[3.3]hept-5-en-6-yl)phenyl)-7-(4-(trifluoromethyl)phenyl)-2-naphthoic acid] | 0.00969 ± 0.00356
4-(4-(6-Methoxy-2-azaspiro[3.3]heptan-6-yl)phenyl)-7-(4-(trifluoromethyl)phenyl)-2-naphthoic acid and 4-(4-(6-(methoxy-d3)-2-azaspiro[3.3]heptan-6-yl)phenyl)-7-(4-(trifluoromethyl)phenyl)-2-naphthoic acid [Compound 409] | 0.0465 ± 0.01
O=C(O)c1cc(-c2ccc(C3(O)CCCNCCC3)cc2)c2ccc(-c3ccc(C(F)(F)F)cc3)cc2c1 [Compound 430, 4-(4-(5-hydroxyazocan-5-yl)phenyl)-7-(4-(trifluoromethyl)phenyl)-2-naphthoic acid] | 1.78 ± 0.44
Mixture of 4-(4-(2,3,6,7-Tetrahydro-1H-azepin-4-yl)phenyl)-7-(4-(trifluoromethyl)phenyl)-2-naphthoic acid and 4-(4-(2,5,6,7-tetrahydro-1H-azepin-4-yl)phenyl)-7-(4-(trifluoromethyl)phenyl)-2-naphthoic acid [Compound 427] | 0.0119 ± 0.0036

Same assay, conditions: Table 1; fluorescent antagonist 2, hP2Y14R-CHO cells, 3-4 determinations; read-out: IC50, hP2Y14R (μM, mean ± SEM)

Molecule | IC50 [µM]
CC(=O)Nc1ccc(-c2cc(C(=O)O)cc(-n3cc(-c4ccc(C(F)(F)F)cc4)nn3)c2)cc1 [Compound 8, 4′-Acetamido-5-(4-(4-(trifluoromethyl)phenyl)-1H-1,2,3-triazol-1-yl)-[1,1′-biphenyl]-3-carboxylic acid] | 0.811 ± 0.095
NCC1(c2ccc(-c3cc(C(=O)O)cc(-n4cc(-c5ccc(C(F)(F)F)cc5)nn4)c3)cc2)CC1 [Compound 23, 4′-(1-(Aminomethyl)cyclopropyl)-5-(4-(4-(trifluoromethyl)phenyl)-1H-1,2,3-triazol-1-yl)-[1,1′-biphenyl]-3-carboxylic acid] | 8.91 ± 0.75
NCCCc1ccc(-c2cc(C(=O)O)cc(-n3cc(-c4ccc(C(F)(F)F)cc4)nn3)c2)cc1 [Compound 18, 4′-(3-Aminopropyl)-5-(4-(4-(trifluoromethyl)phenyl)-1H-1,2,3-triazol-1-yl)-[1,1′-biphenyl]-3-carboxylic acid] | 0.292 ± 0.067
CC(C)(C)OC(=O)NCC1(c2ccc(-c3cc(C(=O)O)cc(-n4cc(-c5ccc(C(F)(F)F)cc5)nn4)c3)cc2)CC1 [Compound 24, 4′-(1-(((tert-Butoxycarbonyl)amino)methyl)cyclopropyl)-5-(4-(4-(trifluoromethyl)phenyl)-1H-1,2,3-triazol-1-yl)-[1,1′-biphenyl]-3-carboxylic acid] | 18.8 ± 2
NC1(c2ccc(-c3cc(C(=O)O)cc(-n4cc(-c5ccc(C(F)(F)F)cc5)nn4)c3)cc2)CCC1 [Compound 25, 4′-(1-Aminocyclobutyl)-5-(4-(4-(trifluoromethyl)phenyl)-1H-1,2,3-triazol-1-yl)-[1,1′-biphenyl]-3-carboxylic acid] | 2 ± 0.18
N#CCCc1ccc(-c2cc(C(=O)O)cc(-n3cc(-c4ccc(C(F)(F)F)cc4)nn3)c2)cc1 [Compound 17, 4′-(2-Cyanoethyl)-5-(4-(4-(trifluoromethyl)phenyl)-1H-1,2,3-triazol-1-yl)-[1,1′-biphenyl]-3-carboxylic acid] | 17.8 ± 2.9
Nc1ccc(-c2cc(C(=O)O)cc(-n3cc(-c4ccc(C(F)(F)F)cc4)nn3)c2)cc1 [Compound 7, 4′-Amino-5-(4-(4-(trifluoromethyl)phenyl)-1H-1,2,3-triazol-1-yl)-[1,1′-biphenyl]-3-carboxylic acid] | 1.48 ± 0.16
O=C(O)c1cc(-c2ccc(CCCCO)cc2)cc(-n2cc(-c3ccc(C(F)(F)F)cc3)nn2)c1 [Compound 21, 4′-(4-Hydroxybutyl)-5-(4-(4-(trifluoromethyl)phenyl)-1H-1,2,3-triazol-1-yl)-[1,1′-biphenyl]-3-carboxylic acid] | 9.22 ± 1.22

Same assay, conditions: Table 2; whole hP2Y14R-CHO cells, 20 nM fluorescent antagonist 3, mean+SEM, n = 3-6; read-out: IC50

Molecule | IC50 [µM]
O=C(O)c1cc(-c2ccc([C@H]3C[C@H]4C[C@@H]3C(=O)N4)cc2)c2ccc(-c3ccc(C(F)(F)F)cc3)cc2c1 [Compound 119, 4-(4-((1S,4S,5S)-3-Oxo-2-azabicyclo[2.2.1]heptan-5-yl)phenyl)-7-(4-(trifluoromethyl)phenyl)-2-naphthoic acid] | 0.101 ± 0.07
CS(=O)(=O)N1C[C@H]2C[C@@H]1C[C@@H]2c1ccc(-c2cc(C(=O)O)cc3cc(-c4ccc(C(F)(F)F)cc4)ccc23)cc1 [Compound 123] | 0.497 ± 0.092
O=C(O)c1cc(-c2ccc([C@H]3C[C@H]4C[C@@H]3NC4=O)cc2)c2ccc(-c3ccc(C(F)(F)F)cc3)cc2c1 [Compound 122, 4-(4-((1S,4S,6R)-3-Oxo-2-azabicyclo[2.2.1]heptan-6-yl)phenyl)-7-(4-(trifluoromethyl)phenyl)-2-naphthoic acid] | 0.0586 ± 0.0129
O=C(O)c1cc(-c2ccc(C3CCN(CCCCc4cn([C@@H]5O[C@H](CO)[C@@H](O)[C@H](O)[C@H]5O)nn4)CC3)cc2)c2ccc(-c3ccc(C(F)(F)F)cc3)cc2c1 [Compound 508, 7-(4-(Trifluoromethyl)phenyl)-4-(4-(1-(4-(1-((2R,3R,4S,5S,6R)-3,4,5-trihydroxy-6-(hydroxymethyl)tetrahydro-2H-pyran-2-yl)-1H-1,2,3-triazol-4-yl)butyl)piperidin-4-yl)phenyl)-2-naphthoic acid] | 0.0157 ± 0.0025

Same assay, conditions: Table 6; fluorescent hP2Y14R antagonist (3); read-out: hP2Y14R, IC50

Molecule | IC50 [µM]
N[C@H]1C[C@@H](CO)C[C@@H]1c1ccc(-c2cc(C(=O)O)cc3cc(-c4ccc(C(F)(F)F)cc4)ccc23)cc1 [Compound 137, 4-(4-((1R,2S,4S)-2-Amino-4-(hydroxymethyl)cyclopentyl)phenyl)-7-(4-(trifluoromethyl)phenyl)-2-naphthoic acid] | 0.125 ± 0.045

Same assay, conditions: read-out: IC50

Molecule | IC50 [µM]
O=C(O)c1cc(-c2ccc(C3(O)C[C@H]4CNC[C@@H]4C3)cc2)c2ccc(-c3ccc(C(F)(F)F)cc3)cc2c1 (racemic) [Compound 411, rac-4-(4-((3aR,6aR)-5-hydroxyoctahydrocyclopenta[c]pyrrol-5-yl)phenyl)-7-(4-(trifluoromethyl)phenyl)-2-naphthoic acid] | 0.00948 ± 0.00166
O=C(O)c1cc(-c2ccc(C3C[C@H]4CNC[C@@H]4C3)cc2)c2ccc(-c3ccc(C(F)(F)F)cc3)cc2c1 (racemic) [Compound 413, rac-4-(4-((3aR,6aR)-Octahydrocyclopenta[c]pyrrol-5-yl)phenyl)-7-(4-(trifluoromethyl)phenyl)-2-naphthoic acid] | 0.032 ± 0.0112
O=C(O)c1cc(-c2ccc(C3=C[C@H]4CNC[C@@H]4C3)cc2)c2ccc(-c3ccc(C(F)(F)F)cc3)cc2c1 (racemic) [Compound 412, rac-4-(4-((3aR,6aR)-1,2,3,3a,4,6a-Hexahydrocyclopenta[c]pyrrol-5-yl)phenyl)-7-(4-(trifluoromethyl)phenyl)-2-naphthoic acid] | 0.0166 ± 0.0032

From US20240150290A1, “HETEROCYCLIC P2Y14 RECEPTOR ANTAGONISTS” (priority 2021, published 2024)
